Experimental findings from ChEMBL document CHEMBL5303573, “Mapping human microbiome drug metabolism by gut bacteria and their genes” (Nature, 2019) are described below.

Series [1] can be described thus: The drug is tested on Clostridium spiroforme strain: DSM1552 for biotransformation. The drug concentrations were measured before and after a 12-h incubation by liquid-chromatography-coupled mass spectrometry (LC–MS). To be noted: thomasclavelia spiroformis, 2 µM.
Series [2] can be described thus: The drug is tested on Clostridium ramosum strain: DSM1402 for biotransformation. The drug concentrations were measured before and after a 12-h incubation by liquid-chromatography-coupled mass spectrometry (LC–MS). To be noted: thomasclavelia ramosa, 2 µM.
The conditions of series [3]: bifidobacterium adolescentis, 12 h, 2 µM.
Description: The drug is tested on Bifidobacterium adolescentis strain: ATCC 15703 for biotransformation. The drug concentrations were measured before and after a 12-h incubation by liquid-chromatography-coupled mass spectrometry (LC–MS)
A short description of series [4]: The drug is tested on Anaerotruncus colihominis strain: DSM17241 for biotransformation. The drug concentrations were measured before and after a 12-h incubation by liquid-chromatography-coupled mass spectrometry (LC–MS). To be noted: 2 µM.
For series [5] the following is noted: bacteroides fragilis, 12 h, 2 µM.
Description: The drug is tested on Bacteroides fragilis strain: 3397 (T10) for biotransformation. The drug concentrations were measured before and after a 12-h incubation by liquid-chromatography-coupled mass spectrometry (LC–MS)
Series [6] is described as follows: The drug is tested on Clostridium hathewayi strain: DSM13479 for biotransformation. The drug concentrations were measured before and after a 12-h incubation by liquid-chromatography-coupled mass spectrometry (LC–MS). To be noted: hungatella hathewayi, 2 µM.
The conditions of series [7]: parabacteroides johnsonii, 12 h, 2 µM.
Description: The drug is tested on Parabacteroides johnsonii strain: DSM18315 for biotransformation. The drug concentrations were measured before and after a 12-h incubation by liquid-chromatography-coupled mass spectrometry (LC–MS)
A short description of series [8]: The drug is tested on Eggerthella lenta strain: ATCC25559 for biotransformation. The drug concentrations were measured before and after a 12-h incubation by liquid-chromatography-coupled mass spectrometry (LC–MS). Particulars: 2 µM.
The conditions of series [9]: victivallis vadensis, 12 h, 2 µM.
Description: The drug is tested on Victivallis vadensis strain: ATCC BAA-548 for biotransformation. The drug concentrations were measured before and after a 12-h incubation by liquid-chromatography-coupled mass spectrometry (LC–MS)

As for `COc1cc2nc(N3CCN(C(=O)c4ccco4)CC3)nc(N)c2cc1OC` [PRAZOSIN], the “Bacterial Biotransformation” value in [1], in [2], in series [3], in series [4], in series [5] and in series [6] was “Compound NOT metabolized” in each case. Besides, the “Bacterial Biotransformation” value in [7] was “Compound NOT metabolized”.

Turning to `CN(C/C=C/C#CC(C)(C)C)Cc1cccc2ccccc12` [TERBINAFINE], the “Bacterial Biotransformation” value in series [2], in [3], in series [4], in series [5], in series [8] and in series [9] was “Compound NOT metabolized” throughout. Besides, the “Bacterial Biotransformation” value in series [7] is reported as “Compound NOT metabolized”.

For `CCN(C)C(=O)Oc1cccc([C@H](C)N(C)C)c1.O=C(O)C(O)C(O)C(=O)O` [RIVASTIGMINE TARTRATE], the “Bacterial Biotransformation” value in [2], in [3], in series [4], in series [5], in [8] and in series [9] was “Compound NOT metabolized” throughout. Also, in series [7], the “Bacterial Biotransformation” value is reported as “Compound NOT metabolized”.

Take `COc1ccc(C(CN(C)C)C2(O)CCCCC2)cc1` (centres undefined) [VENLAFAXINE]: the “Bacterial Biotransformation” value in series [2], in series [3], in series [4], in series [5], in series [8] and in [9] was “Compound NOT metabolized” in each case. Further, the “Bacterial Biotransformation” value in series [7] is “Compound NOT metabolized”.

For `C=CC[C@@H]1/C=C(\C)C[C@H](C)C[C@H](OC)[C@H]2O[C@@](O)(C(=O)C(=O)N3CCCC[C@H]3C(=O)O[C@H](/C(C)=C/[C@@H]3CC[C@@H](O)[C@H](OC)C3)[C@H](C)[C@@H](O)CC1=O)[C@H](C)C[C@@H]2OC.O` [TACROLIMUS], the “Bacterial Biotransformation” value in [2] is given as “Compound metabolized”; in [3], “Compound NOT metabolized”; in series [4], “Compound metabolized”; in series [5] it was “Compound NOT metabolized”; in series [8], “Compound metabolized”; in series [9], “Compound metabolized”. Further, the “Bacterial Biotransformation” value in series [7] is “Compound metabolized”.

For the compound `O=C(O)CCC(=O)O.O=C(O[C@H]1CN2CCC1CC2)N1CCc2ccccc2[C@@H]1c1ccccc1` [SOLIFENACIN SUCCINATE], the “Bacterial Biotransformation” value in [2], in series [3], in series [4], in series [5], in series [8] and in [9] was “Compound NOT metabolized” in each case. For the same compound, in [7], the “Bacterial Biotransformation” value was “Compound NOT metabolized”.

Consider `COc1ccc(CN2CCNCC2)c(OC)c1OC.Cl.Cl` [TRIMETAZIDINE DIHYDROCHLORIDE], for which the “Bacterial Biotransformation” value in series [2] is recorded as “Compound NOT metabolized”; in [3], “Compound NOT metabolized”; in series [4] it was “Compound NOT metabolized”; in series [5], “Compound metabolized”; in [8], “Compound NOT metabolized”; in [9] it was “Compound NOT metabolized”. Moreover, in series [7], the “Bacterial Biotransformation” value is listed as “Compound metabolized”.
